From patent US20250288548A1, “INTRANASAL BACLOFEN” (THE REGENTS OF THE UNIVERSITY OF CALIFORNIA, priority 2022, published 2025)

Experiments:
[1] = test system: patients with new acquired brain injury; assay: Intranasal baclofen study in about 40 hospitalized patients (measured torque response, clinical response); assay type: in vivo, human
Text: FIG. 1 represents the summarized results of a study of about 40 patients. Grey bars represent patients treated with nasal baclofen, and white bars represent placebo. Bars to the left (negative) represent reduced tone, and right (positive) is worse tone. The middle line is no change. Statistically significant results are provided with error bars in this figure.
The first bar chart from left to right is baseline compared to visit 2 low dose (250 mcg). The second bar chart from left to right is baseline compared to visit 3 moderate dose (1000 mcg). The third bar chart from left to right is baseline compared to visit 4 high dose (2000 mcg). The fourth bar chart from left to right is baseline compared to visit 5 weaned off back to baseline (providing some residual effect). The p-values for the third panel, which represents the high dose are: Treatment p-value 0.004959, and Control p-value 0.232.
Forty (40) hospitalized patients with new acquired brain injury acutely treated in the PICU have been treated with intranasal baclofen. Aqueous intranasal solutions comprising 250 mcg, 1000 mcg, and/or 2000 mcg of baclofen and […] of sodium chloride per mL exploiting the nasal pathway have delivered baclofen to the CNS by circumventing the BBB. […]

[2] = test system: patient with increased tone after explantation of intrathecal baclofen pump; assay: Individual intranasal baclofen test dose in PICU patient; assay type: in vivo, human; details: gablofen 2-50 mcg vials delivered intranasally as one administration; all enteral medications held
Text: A patient was admitted to a pediatric intensive care unit (PICU) due to increased tone after the patient had underwent surgical explantation of an intrathecal baclofen pump. The patient was on maximum doses of several enteral medications including enteral baclofen. They were given a test dose of intranasal baclofen administered in the PICU using commercially prepared intrathecal baclofen for test dose (gablofen 2-50 mcg vials delivered intranasally as one administration).

[3] = enteral doses ranging from 30 to 90 mg; cited from earlier work
[4] = at therapeutically effective intrathecal concentrations; cited from earlier work
[5] = solutions containing phosphate, sulfate, potassium, or magnesium; per U.S. Pat. No. 9,180,108 (also printed: greater than 4, 5, 6, 7 mg/mL); cited from earlier work
[6] = excised bovine nasal tissues; concentration independent transport, no polarized flux; cited from earlier work

NCC(CC(=O)O)c1ccc(Cl)cc1 (centres unmarked) [baclofen, 4-amino-3-(p-chlorophenyl) butyric acid]
response compared with enteral baclofen ([1]; intranasal 250, 1000 and/or 2000 mcg solutions, versus maximized enteral baclofen dose (>90 mg/day)): far greater than that observed with enteral baclofen | sedation compared with enteral baclofen ([1]; intranasal administration): far less sedation | change in tone after intranasal test dose [2]: Significant improvement in tone | CSF levels [3]: 0.012 to 0.096 µg/mL | plasma levels [3]: 50 to 650 ng/mL | plasma concentrations with intrathecal injection relative to oral/enteral administration [4]: 100 times less | concentration of baclofen that can be dissolved [5]: greater than 2 mg/mL | mechanism of absorption across nasal tissues [6]: primarily absorbed via simple passive diffusion
